Structures are written as SMILES.

46 molecules from US10774064B2 (Cadent Therapeutics, Inc., priority 2016, dated 2020) can be followed below.

In the assay the target is T1, small-conductance Ca2+-activated K+ channels (SK channels, subtype 2) (Homo sapiens, UniProt Q9H2S1).
T1 construct: expressed in transfected cells; host or cells: HEK293
Briefly: whole-cell patch-clamp of ionic current through SK2 channels in HEK293 cells (SC100). Format: cell-based. Conditions: whole-cell patch-clamp, HEK293 cells expressing SK2 channels; concentration that increases the basal current by 100%. Summed up: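 SC100, the concentration doubling basal current (a 100% increase), was taken from SK2 currents recorded by whole-cell patch-clamp in SK2-expressing HEK293 cells.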
Background: In patch-clamp work, channel activity is measured electrically.
Turning to `Cc1cc(NC2CCC(F)(F)CC2)nc(Cn2nccc2C)n1` [IN11273-015-P2, N-(4,4-difluorocyclohexyl)-6-methyl-2-((5-methyl-1H-pyrazol-1-yl)methyl)pyrimidin-4-amine], the “SC100 (μM)” value was “+ (+ means >1 uM)”.

On to `Cc1cc(NC2CCC(F)(F)CC2)nc(CC#N)n1` [IN11273-018-P1, 2-(4-((4,4-difluorocyclohexyl)amino)-6-methylpyrimidin-2-yl) acetonitrile], for which the “SC100 (μM)” value is recorded as “+ (+ means >1 uM)”.

Turning to `Cc1ccn(-c2nc(NC3CCC(F)(F)CC3)cc(N3CC(=O)N(C)C(=O)C3)n2)n1` [IN11288-005-P1], the “SC100 (μM)” value was “++ (++ means 200 nM-1000 nM)”.

As to `Cc1ccn(-c2nc(C#N)cc(NC3CCC(F)(F)CC3)n2)n1` [IN11288-025-P1], the “SC100 (μM)” value is “+ (+ means >1 uM)”.

For `OCCN(CCO)c1cc(NC2CCC(F)(F)CC2)nc(-n2ccc(CO)n2)n1` [IN11337-019-P1, 2,2′-((6-((4,4-difluorocyclohexyl)amino)-2-(3-(hydroxymethyl)-1H-pyrazol-1-yl)pyrimidin-4-yl)azanediyl)bis-(ethan-1-ol)], the “SC100 (μM)” value was “+ (+ means >1 uM)”.

Take `Cc1cn(-c2cc(OC3COC3)cc(NC3CCC(F)(F)CC3)n2)nc1CF` [NSSy5615, N-(4,4-difluorocyclohexyl)-6-(3-(fluoromethyl)-4-methyl-1H-pyrazol-1-yl)-4-(oxetan-3-yloxy)pyridin-2-amine]: the “SC100 (μM)” value is on record as “++ (++ means 200 nM-1000 nM)”.

Consider `FCc1ccn(-c2nc(NC3CCC(F)(F)CC3)cc(OC3CC(F)C3)n2)n1` (stereo not shown) [NSSy5618, N-(4,4-difluorocyclohexyl)-6-(3-fluorocyclobutoxy)-2-(3-(fluoromethyl)-1H-pyrazol-1-yl)pyrimidin-4-amine], for which the “SC100 (μM)” value is given as “+ (+ means >1 uM)”.

Consider `FCc1ccn(-c2nc(NC3CCC(F)(F)CC3)cc(OC3CC(F)(F)C3)n2)n1` [NSSy5619, 6-(3,3-difluorocyclobutoxy)-N-(4,4-difluorocyclohexyl)-2-(3-(fluoromethyl)-1H-pyrazol-1-yl)pyrimidin-4-amine], for which the “SC100 (μM)” value was “+ (+ means >1 uM)”.

`CC(C)C(=O)NCc1cc(NC2CCC(F)(F)CC2)nc(-n2ccc(CF)n2)c1` [NSSy5620, N-((2-((4,4-difluorocyclohexyl)amino)-6-(3-(fluoromethyl)-1H-pyrazol-1-yl)pyridin-4-yl)methyl)isobutyramide]: the “SC100 (μM)” value is listed as “++ (++ means 200 nM-1000 nM)”.

For the molecule `CC(=O)NCc1cc(NC2CCC(F)(F)CC2)nc(-n2cc(C)c(CF)n2)c1` [NSSy5622, N-((2-((4,4-difluorocyclohexyl)amino)-6-(3-(fluoromethyl)-4-methyl-1H-pyrazol-1-yl)pyridin-4-yl)methyl)acetamide], the “SC100 (μM)” value was “++ (++ means 200 nM-1000 nM)”.

Turning to `Cn1cnc(COc2cc(NC3CCC(F)(F)CC3)nc(-c3nc(CF)cs3)n2)n1` [NSSy5624, N-(4,4-difluorocyclohexyl)-2-(4-(fluoromethyl)thiazol-2-yl)-6-((1-methyl-1H-1,2,4-triazol-3-yl)methoxy)pyrimidin-4-amine], the “SC100 (μM)” value is “+ (+ means >1 uM)”.

`Cc1csc(-c2nc(NC3CCC(F)(F)CC3)cc(OCc3cnnn3C)n2)n1` [NSSy5625]: the “SC100 (μM)” value was “+++ (+++ means <200 nM)”.

Regarding `Cc1csc(-c2nc(NC3CCC(F)(F)CC3)cc(OC3CN(C(=O)C(C)C)C3)n2)n1` [NSSy5629], the “SC100 (μM)” value is on record as “+++ (+++ means <200 nM)”.

As for `Cc1ccn(-c2nc(NC3CCC(F)(F)CC3)cc(N3CC4(COC4)C3)n2)n1` [NSSy5631], the “SC100 (μM)” value is listed as “++ (++ means 200 nM-1000 nM)”.

For `COC(=O)NCc1cc(NC2CCC(F)(F)CC2)nc(-n2ccc(C)n2)c1` [NSSy5635], the “SC100 (μM)” value was “++ (++ means 200 nM-1000 nM)”.

Take `Cc1ccn(-c2cc(CNC(=O)C(C)C)cc(NC3CCC(F)(F)CC3)n2)n1` [NSSy5637]: the “SC100 (μM)” value was “++ (++ means 200 nM-1000 nM)”.

As for `Cc1ccn(-c2cc(NC3CCC(F)(F)CC3)cc(OCc3ncnn3C)n2)n1` [NSSy5638, N-(4,4-difluorocyclohexyl)-2-((1-methyl-1H-1,2,4-triazol-5-yl)methoxy)-6-(3-methyl-1H-pyrazol-1-yl)pyridin-4-amine], the “SC100 (μM)” value is given as “++ (++ means 200 nM-1000 nM)”.

As for `CC(=O)NCc1cc(NC2CCC(F)(F)CC2)nc(-c2nc(C)cs2)c1` [NSSy5640, N-((2-((4,4-difluorocyclohexyl)amino)-6-(4-methylthiazol-2-yl)pyridin-4-yl)methyl)acetamide], the “SC100 (μM)” value is recorded as “++ (++ means 200 nM-1000 nM)”.

For the molecule `Cc1ccn(-c2cc(OCc3ncn(C)n3)cc(NC3CCC(F)(F)CC3)n2)n1` [NSSy5641], the “SC100 (μM)” value is “++ (++ means 200 nM-1000 nM)”.

In the case of `Cc1ccn(-c2cc(OCc3cnnn3C)cc(NC3CCC(F)(F)CC3)n2)n1` [NSSy5643], the “SC100 (μM)” value is listed as “++ (++ means 200 nM-1000 nM)”.

For the molecule `CC(=O)NCc1cc(NC2CCC(F)(F)CC2)nc(-c2nc(CF)cs2)c1` [NSSy5644, N-((2-((4,4-difluorocyclohexyl)amino)-6-(4-(fluoromethyl)thiazol-2-yl)pyridin-4-yl)methyl) acetamide], the “SC100 (μM)” value was “++ (++ means 200 nM-1000 nM)”.

Turning to `Cc1cc(C)n(-c2cc(Cc3ncco3)cc(NC3CCC(F)(F)CC3)n2)n1` [NSSy5645, N-(4,4-difluorocyclohexyl)-6-(3,5-dimethyl-1H-pyrazol-1-yl)-4-(oxazol-2-ylmethyl)pyridin-2-amine], the “SC100 (μM)” value is given as “++ (++ means 200 nM-1000 nM)”.

Take `Cc1csc(-c2cc(N3CCOCC3)cc(NC3CCC(F)(F)CC3)n2)n1` [NSSy5646]: the “SC100 (μM)” value is given as “++ (++ means 200 nM-1000 nM)”.

Regarding `Cc1ccn(-c2nc(NC3CCC(F)(F)CC3)cc(OC3CC(F)C3)n2)n1` (stereo not shown) [NSSy5647, N-(4,4-difluorocyclohexyl)-6-(3-fluorocyclobutoxy)-2-(3-methyl-1H-pyrazol-1-yl)pyrimidin-4-amine], the “SC100 (μM)” value is “++ (++ means 200 nM-1000 nM)”.

Take `Cc1ccn(-c2nc(NC3CCC(F)(F)CC3)cc(OC3CNC3)n2)n1` [NSSy5648, 6-(azetidin-3-yloxy)-N-(4,4-difluorocyclohexyl)-2-(3-methyl-1H-pyrazol-1-yl)pyrimidin-4-amine]: the “SC100 (μM)” value is “+ (+ means >1 uM)”.

As for `Cc1csc(-c2nc(NC3CCC(F)(F)CC3)cc(OCc3nnc(C)o3)n2)n1` [NSSy5651], the “SC100 (μM)” value is listed as “++ (++ means 200 nM-1000 nM)”.

For `COC(=O)NCc1cc(NC2CCC(F)(F)CC2)nc(-n2ccc(CF)n2)c1` [NSSy5653, methyl ((2-((4,4-difluorocyclohexyl)amino)-6-(3-(fluoromethyl)-1H-pyrazol-1-yl)pyridin-4-yl)methyl)carbamate], the “SC100 (μM)” value was “++ (++ means 200 nM-1000 nM)”.

With `Cc1csc(-c2cc(N3CCOCC3)cc(NC3CC=CCC3)n2)n1` (stereo not shown) [NSSy5655, N-(cyclohex-3-en-1-yl)-6-(4-methylthiazol-2-yl)-4-morpholinopyridin-2-amine], the “SC100 (μM)” value is “++ (++ means 200 nM-1000 nM)”.

Take `Cc1ccn(-c2nc(NC3CCC(F)CC3)cc(N3CCOCC3)n2)n1` (stereo not shown) [NSSy5662]: the “SC100 (μM)” value is on record as “+ (+ means >1 uM)”.

As for `Cc1ccn(-c2nc(NC3CC=CCC3)cc(N3CCOCC3)n2)n1` (stereo not shown) [NSSy5663], the “SC100 (μM)” value was “+ (+ means >1 uM)”.

Turning to `Cc1csc(-c2nc(NC3CCC(F)(F)CC3)cc(N3CC4(COC4)C3)n2)n1` [NSSy5664], the “SC100 (μM)” value is reported as “++ (++ means 200 nM-1000 nM)”.

`Cc1ccn(-c2nc(NC3CC=CCC3)cc(N3CC4(COC4)C3)n2)n1` (stereo not shown) [NSSy5670]: the “SC100 (μM)” value is listed as “++ (++ means 200 nM-1000 nM)”.

Turning to `COC(=O)N(C)C1CC(Oc2cc(NC3CCC(F)(F)CC3)nc(-n3ccc(C)n3)n2)C1` (stereo not shown) [NSSy5672, methyl (3-((6-((4,4-difluorocyclohexyl)amino)-2-(3-methyl-1H-pyrazol-1-yl)pyrimidin-4-yl)oxy)cyclobutyl)(methyl)carbamate], the “SC100 (μM)” value is on record as “++ (++ means 200 nM-1000 nM)”.

As to `Cc1csc(-c2cc(N3CCN(C)C(=O)C3)cc(NC3CCC(F)(F)CC3)n2)n1` [NSSy5674, 4-(2-((4,4-difluorocyclohexyl)amino)-6-(4-methylthiazol-2-yl)pyridin-4-yl)-1-methylpiperazin-2-one], the “SC100 (μM)” value is on record as “+++ (+++ means <200 nM)”.

On to `Cc1csc(-c2cc(N3CC4(COC4)C3)cc(NC3CCC(F)(F)CC3)n2)n1` [NSSy5675], for which the “SC100 (μM)” value is “+++ (+++ means <200 nM)”.

`Cc1ccn(-c2cc(C(O)c3cccnc3)cc(NC3CCC(F)(F)CC3)n2)n1` (stereo not shown) [NSSy5676, (2-((4,4-difluorocyclohexyl)amino)-6-(3-methyl-1H-pyrazol-1-yl)pyridin-4-yl)(pyridin-3-yl)methanol]: the “SC100 (μM)” value is on record as “+++ (+++ means <200 nM)”.

Consider `Cc1csc(-c2cc(N3CC(N(C)C)C3)cc(NC3CCC(F)(F)CC3)n2)n1` [NSSy5677], for which the “SC100 (μM)” value is “++ (++ means 200 nM-1000 nM)”.

With `Cc1csc(-c2cc(OCc3cn(C)nn3)cc(NC3CCC(F)(F)CC3)n2)n1` [NSSy5680], the “SC100 (μM)” value is reported as “+++ (+++ means <200 nM)”.

For `Cc1ccn(-c2cc(OCc3nnc(C)o3)cc(NC3CCC(F)(F)CC3)n2)n1` [NSSy5681], the “SC100 (μM)” value is listed as “+ (+ means >1 uM)”.

For `Cc1csc(-c2cc(OCc3ncn(C)n3)cc(NC3CCC(F)(F)CC3)n2)n1` [NSSy5686], the “SC100 (μM)” value is “++ (++ means 200 nM-1000 nM)”.

Take `Cc1csc(-c2cc(N3CC(C)(O)C3)cc(NC3CCC(F)(F)CC3)n2)n1` [NSSy5687]: the “SC100 (μM)” value is on record as “++ (++ means 200 nM-1000 nM)”.

For `Cc1csc(-c2cc(N3CCOCC3)cc(NC3CCC(F)CC3)n2)n1` (stereo not shown) [NSSy5688], the “SC100 (μM)” value is reported as “++ (++ means 200 nM-1000 nM)”.

On to `Cc1csc(-c2nc(NC3CCC(F)(F)CC3)cc(OCc3ncnn3C)n2)n1` [NSSy5689], for which the “SC100 (μM)” value is on record as “+ (+ means >1 uM)”.

For the molecule `Cc1csc(-c2nc(NC3CCC(F)(F)CC3)cc(OCc3ncn(C)n3)n2)n1` [NSSy5690], the “SC100 (μM)” value is given as “++ (++ means 200 nM-1000 nM)”.

As to `Cc1ccn(-c2nc(NC3CCC(F)CC3)cc(N3CC4(COC4)C3)n2)n1` (stereo not shown) [NSSy5691], the “SC100 (μM)” value is listed as “+ (+ means >1 uM)”.

Consider `Cc1csc(-c2cc(OCc3nnc(C)o3)cc(NC3CCC(F)(F)CC3)n2)n1` [NSSy5694], for which the “SC100 (μM)” value is “+++ (+++ means <200 nM)”.
